Test results reported in US4959393A, “Skin depigmental agent” (priority 1988, dated 1990).
Where two headings read alike, the source gives them in different places.

Columns and labels:
tyrosinase [1] = assay: Measurement of Tyrosine Hydroxylation Activity (formation of dopa from tyrosine); type: biochemical; details: L-tyrosine 1×10^-4 M; 200 units mushroom tyrosinase; absorbance at 280 nm; control 1.83
Text: (§1) Tyrosinase is a copper-containing enzyme which controls synthesis of melanin from starting tyrosine. This enzyme is considered to act as a catalyst for the formation of dopa, dopaquinone and indole-5,6-quinone which are, respectively, intermediates for the synthesis of melanin. We measured activities of the resorcinol derivatives of the formula (1) on inhibition of the formation reactions of the former two intermediates, i.e. the formation reaction of dopa (tyrosine hydroxylase) from tyrosine and the formation reaction of dopa quinone (dopa oxidase) from the dopa. From this, the activity on the tyrosinase activity inhibition was determined.
(1) Measurement of Tyrosine Hydroxylation Activity
(§2) The presence or absence of UV absorptions of the substrate and the substance to be detected was confirmed, after which […] of tyrosinase (Mushroom, 200 units, made by Sigma Co., Ltd.) was added for starting the reaction. The variation in absorbance at 280 nm which is a maximum absorption of L-dopa was measured. The tyrosine hydroxylation activity was indicated a nmol dopa/min/mg of protein. The amount of the protein was measured according to Lowry's method.

tyrosinase [2] = assay: Measurement of Dopa Oxidation Activity (formation of dopa quinone from dopa); type: biochemical, Mushroom; details: L-dopa 5×10^-3 M; 10 units tyrosinase; 475 nm; control 15.80
Text: as §1, §2
(2) Measurement of Dopa Oxidation Activity
The general procedure of Measurement (1) was repeated except that L-dopa (5×10^-3 M) was used as a that produced dopa chrome was measured at a wavelength of 475 nm, and that 10 units of tyrosinase were used.
The dopa oxidation activity was indicated as μmol of dopa chrome/min/mg of protein.

salmonella typhimuria = details: Ames test using salmonella typhimuria
skin = details: cited from earlier work
in vivo = details: mouse, ddy male mice
Method: The life or death of the mice before 24 hours was observed. The value of LD50 was calculated according to the Litchfield-Wilcoxom method using the above results.

[3] = ip, intraperitoneal, read-out: LD50 i.p.
[4] = po, peroral, read-out: LD50 p.o.
[5] = sc, subcutaneous, read-out: LD50 s.c.

| Structure (SMILES) | Activity (tyrosine hydroxylation activity) (tyrosinase [1]) | Activity (dopa oxidation activity) (tyrosinase [2]) | other results |
| --- | --- | --- | --- |
| CC(C)CCc1ccc(O)cc1O [Experiment 3] | 0.00 nmol dopa/min/mg of protein |  |  |
| CCCCCCc1ccc(O)cc1O [Experiment 4] | 0.00 nmol dopa/min/mg of protein |  |  |
| CC(C)CCc1ccc(O)cc1O [Experiment 9] |  | 0.00 μmol of dopa chrome/min/mg of |  |
| CCCCCCc1ccc(O)cc1O [Experiment 10] |  | 0.00 μmol of dopa chrome/min/mg of |  |
| CC(C)CCc1ccc(O)cc1O [Isoamyl resorcinol, 4-Isoamyl resorcinol] |  |  | variability (Ames test) (salmonella typhimuria): no variability |
| N[C@@H](CS)C(=O)O [cysteine] |  |  | depigmental effect (skin): do not exhibit a satisfactory depigmental effect since the development of the effect is very slow |
| CCCCCCc1ccc(O)cc1O [drawing 16] |  |  | LD50 at 24 h (in vivo; [3]): 335 mg/kg; LD50 at 24 h (in vivo; [4]): > 500 mg/kg; LD50 at 24 h (in vivo; [5]): > 500 mg/kg |
| CC(C)CCc1ccc(O)cc1O [drawing 17] |  |  | LD50 at 24 h (in vivo; [3]): 269 mg/kg; LD50 at 24 h (in vivo; [4]): > 500 mg/kg; LD50 at 24 h (in vivo; [5]): > 500 mg/kg |
| N[C@@H](CCC(=O)N[C@@H](CS)C(=O)NCC(=O)O)C(=O)O [glutathione] |  |  | depigmental effect (skin): do not exhibit a satisfactory depigmental effect since the development of the effect is very slow |
| Oc1ccc(O)cc1 [hydroquinone, reference compound] | 0.00 nmol dopa/min/mg of protein | 26.94 μmol of dopa chrome/min/mg of |  |

The next lines start with results.

| Activity (tyrosine hydroxylation activity) (tyrosinase [1]) | Activity (dopa oxidation activity) (tyrosinase [2]) | Structure (SMILES) | other results |
| --- | --- | --- | --- |
| 1.78 nmol dopa/min/mg of protein |  | Cc1ccc(O)cc1O [Comparative Experiment 1, reference compound] |  |
| 0.00 nmol dopa/min/mg of protein |  | CCCCc1ccc(O)cc1O [Experiment 2] |  |
| 0.00 nmol dopa/min/mg of protein |  | CCCCCCCCc1ccc(O)cc1O [Experiment 5] |  |
| 0.33 nmol dopa/min/mg of protein |  | CCCCCCCCCCCCc1ccc(O)cc1O [Experiment 6] |  |
|  | 7.44 μmol of dopa chrome/min/mg of | CCc1ccc(O)cc1O [Experiment 7] |  |
|  | 0.00 μmol of dopa chrome/min/mg of | CCCCc1ccc(O)cc1O [Experiment 8] |  |
|  | 0.00 μmol of dopa chrome/min/mg of | CCCCCCCCc1ccc(O)cc1O [Experiment 11] |  |
|  | 7.19 μmol of dopa chrome/min/mg of | CCCCCCCCCCCCc1ccc(O)cc1O [Experiment 12] |  |
| 0.00 nmol dopa/min/mg of protein |  | CCc1ccc(O)cc1O [drawing 2] |  |
|  | 16.81 μmol of dopa chrome/min/mg of | Cc1ccc(O)cc1O [drawing 15, reference compound] |  |
